Results on four compounds are retold here after ChEMBL document CHEMBL1126097 (J Med Chem, 1992).

The target of test [1] is T1, 5-hydroxytryptamine receptor 1D (Cavia porcellus, UniProt Q60484). In words: Effect on forskolin stimulated adenylate cyclase activity at 5-HT1D receptor of guinea pig substantia nigra. It is filed as functional.
Test [2] has as its target T1, 5-hydroxytryptamine receptor 1D. The test can be described thus: Binding affinity against 5-hydroxytryptamine 1D receptor.
Test [3] has as its target T2, 5-hydroxytryptamine receptor 2C (Rattus norvegicus, UniProt P08909).
T2 sequence (P08909 whole entry): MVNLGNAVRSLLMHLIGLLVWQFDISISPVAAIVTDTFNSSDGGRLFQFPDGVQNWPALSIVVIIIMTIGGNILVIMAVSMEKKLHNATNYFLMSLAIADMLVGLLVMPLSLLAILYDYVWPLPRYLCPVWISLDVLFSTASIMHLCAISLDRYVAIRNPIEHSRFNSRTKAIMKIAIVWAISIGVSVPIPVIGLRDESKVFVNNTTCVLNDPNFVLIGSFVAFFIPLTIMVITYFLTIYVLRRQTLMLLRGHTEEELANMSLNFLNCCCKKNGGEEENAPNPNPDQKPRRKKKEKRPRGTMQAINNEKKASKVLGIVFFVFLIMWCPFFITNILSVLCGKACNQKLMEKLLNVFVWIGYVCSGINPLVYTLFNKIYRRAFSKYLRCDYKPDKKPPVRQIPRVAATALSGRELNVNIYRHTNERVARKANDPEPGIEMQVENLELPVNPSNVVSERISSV
The test can be described thus: Binding affinity against 5-hydroxytryptamine 1C receptor.

Test [4] has as its target T3, Serotonin 2 (5-HT2) receptor (Rattus norvegicus, UniProt P30994+P08909+P14842). The test can be described thus: Binding affinity against 5-hydroxytryptamine 2 receptor using [125I]DOI as radioligand. It is filed as protein assay.
Test [5] addresses T3, Serotonin 2 (5-HT2) receptor. In words: Binding affinity against 5-hydroxytryptamine 2 receptor using [3H]ket as radioligand. It is filed as protein assay.
Test [6] deals with 5-hydroxytryptamine receptor 1B (Homo sapiens, UniProt P28222). In words: Binding affinity against 5-hydroxytryptamine 1B receptor.

SMILES strings stand for the structures.

T1 sequence (Q60484 whole entry): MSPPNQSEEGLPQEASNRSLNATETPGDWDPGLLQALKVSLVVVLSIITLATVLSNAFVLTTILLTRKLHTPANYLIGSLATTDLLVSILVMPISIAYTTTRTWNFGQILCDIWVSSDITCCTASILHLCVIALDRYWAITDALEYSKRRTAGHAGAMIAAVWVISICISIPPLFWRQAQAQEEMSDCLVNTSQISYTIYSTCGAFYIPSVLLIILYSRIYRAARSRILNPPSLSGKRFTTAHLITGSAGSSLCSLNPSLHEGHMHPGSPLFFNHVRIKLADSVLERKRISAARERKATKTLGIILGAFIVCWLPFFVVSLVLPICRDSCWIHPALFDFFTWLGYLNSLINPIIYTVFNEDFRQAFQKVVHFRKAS
Chain of 5-hydroxytryptamine receptor 1B (P28222 whole entry): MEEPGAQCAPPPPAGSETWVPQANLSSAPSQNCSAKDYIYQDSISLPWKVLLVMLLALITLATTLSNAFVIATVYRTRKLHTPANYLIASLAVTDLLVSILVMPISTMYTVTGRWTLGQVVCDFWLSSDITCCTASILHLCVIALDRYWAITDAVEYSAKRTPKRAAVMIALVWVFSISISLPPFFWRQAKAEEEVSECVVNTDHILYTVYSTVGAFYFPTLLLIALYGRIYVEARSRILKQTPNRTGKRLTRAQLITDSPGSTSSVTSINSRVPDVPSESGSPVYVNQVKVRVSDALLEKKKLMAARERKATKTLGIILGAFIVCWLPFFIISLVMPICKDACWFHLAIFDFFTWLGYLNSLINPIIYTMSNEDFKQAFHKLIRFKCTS

Broadly, the EC50 is the midpoint of the concentration-response curve. A lower EC50 goes with an effect from little substance. What is called IC50 is the concentration that inhibits the measured activity by half. A lower IC50 goes with higher potency. `NCCc1c[nH]c2ccc(O)cc12` [SEROTONIN]: in test [1], the EC50 was determined as 5.2 nM. Besides, the IC50 in test [2] was 3 nM.

Regarding `COc1ccc2[nH]cc(C[C@@H]3CCCN3C)c2c1`, the IC50 in test [3] is 1200 nM; in test [4], 680 nM; in test [5], more than 8400 nM; in test [2], 420 nM; in test [6], 5800 nM.

Regarding `COc1ccc2[nH]cc(CCN(C)C)c2c1` [MEBUFOTENIN], the IC50 in test [2] stood at 49 nM.

Regarding `COc1ccc2[nH]cc(C[C@H]3CCCN3C)c2c1`, the EC50 in test [1] is 43 nM. Moreover, the IC50 in test [3] was determined as 33 nM; in test [4], 17 nM; in test [5], 730 nM; in test [2], 24 nM; in test [6], 830 nM.
